Experimental data published in the SangsterLogP compilation.

Test: method code SF-AS, from DOI: 10.1080/02772240109358997

Row | Compound | logP
1 | C=CCC(C)(C(=O)OCC)S(=O)(=O)c1ccc([N+](=O)[O-])cc1 (stereo not drawn) | 2.3
2 | CC(C)OC(=O)CC(C(=O)OC(C)C)S(=O)(=O)c1ccc([N+](=O)[O-])cc1 (stereo not drawn) | 2.18
3 | COC(=O)C(=Cc1ccccc1)S(=O)(=O)c1ccc([N+](=O)[O-])cc1 | 2.9
4 | CCC(CC)(C(=O)OC)S(=O)(=O)c1ccc([N+](=O)[O-])cc1 | 2.24
5 | CCOC(=O)C(Cc1ccccc1)(Cc1ccccc1)S(=O)(=O)c1ccc([N+](=O)[O-])cc1 | 3.4
6 | CC(C)OC(=O)C(=Cc1ccccc1)S(=O)(=O)c1ccc(Cl)cc1 | 4.18
7 | CC(C(=O)OC1CCCCC1)S(=O)(=O)c1ccc([N+](=O)[O-])cc1 (stereo not drawn) | 2.82
8 | Cc1ccc(S(=O)(=O)C(=Cc2ccccc2)C(=O)OC(C)C)cc1 | 3.92
9 | COC(=O)C(C)(C)S(=O)(=O)c1ccc([N+](=O)[O-])cc1 | 1.38
10 | CCOC(=O)C(=Cc1ccccc1)S(=O)(=O)c1ccc([N+](=O)[O-])cc1 | 3.2
11 | COC(=O)C(C)S(=O)(=O)c1ccc([N+](=O)[O-])cc1 (stereo not drawn) | 1.06
12 | CC(C)COC(=O)C(=Cc1ccccc1)S(=O)(=O)c1ccc([N+](=O)[O-])cc1 | 3.68
13 | CCOC(=O)CC(C(=O)OC)S(=O)(=O)c1ccc([N+](=O)[O-])cc1 (stereo not drawn) | 1.4
14 | CCOC(=O)C(C)(c1cccc2ccccc12)S(=O)(=O)c1ccc([N+](=O)[O-])cc1 (stereo not drawn) | 4.4
15 | CCCCC(CCCC)(C(=O)OCC)S(=O)(=O)c1ccc([N+](=O)[O-])cc1 | 3.81
16 | CCCCC(CCCC)(C(=O)OC(C)C)S(=O)(=O)c1ccc([N+](=O)[O-])cc1 | 4.06
17 | CCOC(=O)CC(CC(=O)OCC)(C(=O)OC(C)C)S(=O)(=O)c1ccc([N+](=O)[O-])cc1 | 3.56
18 | CC(C)OC(=O)C(=Cc1ccccc1)S(=O)(=O)c1ccc([N+](=O)[O-])cc1 | 3.62
